This passage reports IC50 results from US20230365563A1, “QUINAZOLINE COMPOUND AND APPLICATION THEREOF” (SHANGHAI PHARMACEUTICALS HOLDING CO., LTD., priority 2020, published 2023).

Structures are written as SMILES. Where a name gives a salt, the structure may show the parent alone.

For the test, the target named is T1, KRAS-G12D and SOS1 (Homo sapiens, UniProt P01116, G12D).
T1 construct: purchased
T1 sequence (P01116 1-188 isoform P01116-2 G12D): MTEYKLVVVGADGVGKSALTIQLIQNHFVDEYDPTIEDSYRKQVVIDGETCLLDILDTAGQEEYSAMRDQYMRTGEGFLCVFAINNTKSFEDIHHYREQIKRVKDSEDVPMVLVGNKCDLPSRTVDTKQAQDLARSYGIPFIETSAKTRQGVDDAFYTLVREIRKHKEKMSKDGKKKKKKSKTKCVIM
Briefly: Inhibition of KRAS-G12D/SOS1 binding (Cisbio binding kit, 665/615 ratio), Effect Embodiment A. The note with it: read-out: GTP-KRAS-G12D:SOS1 IC50. The method, then: Similarly, the first dilution point of the compound to be tested was its storage solution, and the solution was 3-fold diluted, with 11+0 points of dilution. Echo was used to transfer 0.2 μL gradient diluted solution of the compounds into a 384-well plate, with 2 duplicated wells for each compound, and the final concentration of DMSO was 1%. The solution was centrifuged for 1 min at 1000 rpm/min.
IC50 of the compounds was fitted by Graphpad Prism 8 nonlinear regression equation: […]
The IC50 (half inhibitory concentration) of the compound was obtained by using the following nonlinear fitting formula: […]
As for `CN(C)C1CN(c2nc(NCCO)c3cc(Cl)c(-c4cc(O)cc5ccccc45)c(F)c3n2)C1` (single isomer, unassigned) [Compound 18b, (S or R)-4-(6-chloro-2-(3-(dimethylamino)azetidin-1-yl)-8-fluoro-4-((2-hydroxyethyl)amino)-quinazolin-7-yl)naphthalen-2-ol], the IC50 came out at 2.36 µM.

Take `CN(C)C1CN(c2nc(N=S3(=O)CCC(N)CC3)c3cc(Cl)c(-c4cc(O)cc5ccccc45)c(F)c3n2)C1` (single isomer, unassigned) [Compound 72b, (4R or S)-4-amino-1-(((S or R)-6-chloro-2-(3-(dimethylamino)azetidin-1-yl)-8-fluoro-7-(3-hydroxynaphthalen-1-yl)quinazolin-4-yl)imino)hexahydro-1-thiopyran 1-oxide]: the IC50 was 155 µM.

Turning to `CN(C)CCCn1c(=O)nc(N2CC3CCC(C2)N3)c2cc(Cl)c(-c3cc(O)cc4ccccc34)c(F)c21` (single isomer, unassigned) [Compound 74b, 4-((1R,5S)-3,8-diazabicyclo[3.2.1]octan-3-yl)-6-chloro-1-(3-(dimethylamino)propyl)-8-fluoro-7-((R or S)-3-hydroxynaphthalen-1-yl)quinazolin-2(1H)-one], the IC50 is greater than 200 µM.

Turning to `CN(C)C1CN(c2nc(N3C[C@H]4CC[C@@H]3CN4)c3cc(Cl)c(-c4cc(O)cc5ccccc45)c(F)c3n2)C1` (single isomer, unassigned) [Compound 1b, (S or R)-4-(4-((1R,4R)-2,5-diazabicyclo[2.2.2]octan-2-yl)-6-chloro-2-(3-(dimethylamino)azetidin-1-yl)-8-fluoroquinazolin-7-yl)naphthalen-2-ol], the 50% inhibitory concentration (IC50) was 31.9 µM.

Regarding `CN(C)C1CN(c2nc(N[C@@H]3C[C@H]4CCC[C@@H](C3)N4)c3cc(Cl)c(-c4cc(O)cc5ccccc45)c(F)c3n2)C1` (single isomer, unassigned) [Compound 32, 4-((S or R)-4-(((1R,3S,5S)-9-azabicyclo[3.3.1]nonan-3-yl)amino)-6-chloro-2-(3-(dimethylamino)azetidin-1-yl)-8-fluoroquinazolin-7-yl)naphthalen-2-ol], the IC50 was 187 µM.

With `CN(C)CCCOc1nc(N2C[C@H]3CC[C@@H](C2)N3)c2ccn(-c3cc(O)cc4ccccc34)c(=O)c2n1` [Compound 161, 4-((1R,5S)-3,8-diazabicyclo[3.2.1]octan-3-yl)-2-(3-(dimethylamino)propoxy)-7-(3-hydroxynaphthalen-1-yl)pyrido[3,4-d]pyrimidin-8(7H)-one dihydrochloride], the IC50 was greater than 10 µM.

Regarding `CCc1cccc2cc(O)cc(-c3c(F)cc4c(N5CC6CCC(C5)N6)nc(OCCCN5C6CCC5COC6)nc4c3F)c12` (single isomer, unassigned) [Compound 271b, 4-((7R or 7S)-2-(3-(3-oxa-8-azabicyclo[3.2.1]octan-8-yl)propoxy)-4-((1R,5S)-3,8-diazabicyclo[3.2.1]octan-3-yl)-6,8-difluoroquinazolin-7-yl)-5-ethylnaphthalen-2-ol diformate], the IC50 came to 9.41 µM.

For `Oc1cc(-c2c(Cl)cc3c(N4CC5CCC(C4)N5)nc(OC[C@@]45CCCN4C[C@H](F)C5)nc3c2F)c2c(F)c(F)ccc2c1` (single isomer, unassigned) [Compound 214b, 4-(R or S)-4-((1R,5S)-3,8-diazabicyclo[3.2.1]octane-3-yl)-6-chloro-8-fluoro-2-((2R,7aS)-2-fluorotetrahydro-1H-pyrrolidin-7a(5H)-yl) methoxy) quinazolin-7-yl)-5,6-difluoronaphthalen-2-ol diformate], the IC50 came to 2.66 µM.

As to `CN(C)C1CN(c2nc(N3CC4CCC(C3)N4)c3cc(Cl)c(-c4c(O)cccc4F)c(F)c3n2)C1` (single isomer, unassigned) [Compound 43b, 2-((R or S)-4-((1R,5S)-3,8-diazabicyclo[3.2.1]octan-3-yl)-6-chloro-2-(3-(dimethylamino)azetidin-1-yl)-8-fluoroquinazolin-7-yl)-3-fluorophenol], the IC50 was determined as 2.57 µM.

For the compound `CN(C)C1CN(c2nc(N3CC4CNCC4C3)c3cc(Cl)c(-c4cc(O)cc5ccccc45)c(F)c3n2)C1` (single isomer, unassigned) [Compound 14d, (S or R)-4-(6-chloro-2-(3-(dimethylamino)azetidin-1-yl)-8-fluoro-4-((3aR,6aR or 3aS,6aS)-hexahydro-pyrrolo[3,4-c]pyrrol-2(1H)-yl)quinazolin-7-yl)naphthalen-2-ol], the IC50 was found to be 56.7 µM.

For the compound `CN1CCC[C@H]1COc1nc(N2CC3CCC(C2)N3)c2cc(F)c(-c3cc(O)cc4ccccc34)c(F)c2n1` (single isomer, unassigned) [Compound 160b, (S or R) 4-(4-((1R,5S)-3,8-diazabicyclo[3.2.1]octan-3-yl)-6,8-difluoro-2-((S)-1-methylpyrrolidin-2-yl)methoxy)quinazolin-7-yl)naphthalen-2-ol dihydrochloride], the IC50 came out at 0.117 µM.

Turning to `CN(C)C1CN(c2nc(N3CCNCC3)c3cc(Cl)c(-c4cc(O)cc5ccccc45)c(F)c3n2)C1` (single isomer, unassigned) [Comparative embodiment b, reference compound], the IC50 came out at 83.4 µM.

Regarding `Oc1cc(Cl)c(C2CC2)c(-c2c(Cl)cc3c(N4CC5CCC(C4)N5)nc(OCCCN4C5CCC4COC5)nc3c2F)c1` (single isomer, unassigned) [Compound 197b, 3-((7S or 7R)-2-(3-(3-oxa-8-azabicyclo[3.2.1]octan-8-yl)propoxy)-4-((1R,5S)-3,8-diazabicyclo[3.2.1]octan-3-yl)-6-chloro-8-fluoroquinazolin-7-yl)-5-chloro-4-cyclopropylphenol formate], the IC50 amounted to 2.71 µM.

As for `CN(C)C1CN(c2nc(N3CCC4(CCCN4)CC3)c3cc(Cl)c(-c4cc(O)cc5ccccc45)c(F)c3n2)C1` (single isomer, unassigned) [Compound 12a, (R or S)-4-(6-chloro-2-(3-(dimethylamino)azetidin-1-yl)-8-fluoro-4-(1,8-diazaspiro[4.5]decan-8-yl)quinazolin-7-yl)naphthalen-2-ol], the IC50 worked out at 7.12 µM.

On to `CN(C)C1CN(c2nc(C3(C(N)=O)CN(C(=N)N)C3)c3cc(Cl)c(-c4cc(O)cc5ccccc45)c(F)c3n2)C1` (single isomer, unassigned) [Compound 145, (R or S)-1-Carbamimidoyl-3-(6-chloro-2-(3-(dimethylamino)azetidin-1-yl)-8-fluoro-7-(3-hydroxynaphthalen-1-yl)quinazolin-4-yl)azetidin-3-carboxamide ditrifluoroacetate], for which the 50% inhibitory concentration (IC50) amounted to 5.94 µM.

As to `C#Cc1c(F)ccc2cccc(-c3c(F)cc4c(N5CC6CCC(C5)N6)nc(OC[C@@]56CCCN5C[C@H](F)C6)nc4c3F)c12` (single isomer, unassigned) [Compound 279b, (R or S)-4-((1R,5S)-3,8-diazacyclo[3.2.1]octyl-3-yl)-7-(8-ethynyl-7-fluoronaphthalen-1-yl)-6,8-difluoro-2-((2R,7aS)-2-fluorotetrahydro-1H-pyrrolidin-7a(5H)-yl)methoxy)quinazoline formate], the IC50 worked out at 1.39 µM.

Regarding `Cn1ccnc1COc1nc(N2C[C@H]3CC[C@@H](C2)N3)c2cnc(-c3cc(O)cc4ccccc34)c(F)c2n1` [Compound 132, 4-(4-((1R,5S)-3,8-diazabicyclo[3.2.1]octan-3-yl)-8-fluoro-2-((1-methyl-1H-imidazol-2-yl)methoxy)pyridinyl[4,3-d]pyrimidin-7-yl)naphthalen-2-ol trifluoroacetate], the half-inhibitory concentration (IC50) stood at 0.762 µM.

For `CC(C)(CCOc1nc(N2CC3CCC(C2)N3)c2cc(Cl)c(-c3cc(O)cc4ccccc34)c(F)c2n1)N1CCCC1` (single isomer, unassigned) [Compound 123, 4-((S or R)-4-((1R,5S)-3,8-diazabicyclo[3.2.1]octan-3-yl)-6-chloro-8-fluoro-2-(3-methyl-3-(pyrrolidin-1-yl)butoxy)quinazolin-7-yl)naphthalen-2-ol dihydrochloride], the half-inhibitory concentration (IC50) came out at 0.106 µM.

`CN(C)C1CN(c2nc(N3CCC4(CC3)CNC4)c3cc(Cl)c(-c4cc(O)cc5ccccc45)c(F)c3n2)C1` (single isomer, unassigned) [Compound 11a, (R or S)-4-(6-chloro-2-(3-(dimethylamino)azetidin-1-yl)-8-fluoro-4-(2,7-diazaspiro[3.5]nonan-7-yl)quinazolin-7-yl)naphthalen-2-ol]: the IC50 stood at 1.53 µM.

In the case of `CN(C)C1CN(c2nc(C3CN(C(=N)N)C3)c3cc(Cl)c(-c4cc(O)cc5ccccc45)c(F)c3n2)C1` (single isomer, unassigned) [Compound 146], the IC50 came to 6.93 µM.

As to `CCN(C)CCCOc1nc(N2CC3CCC(C2)N3)c2cc(Cl)c(-c3cc(O)cc4ccccc34)c(F)c2n1` (single isomer, unassigned) [Compound 49b, 4-((R or S)-4-((1R,5S)-3,8-diazabicyclo[3.2.1]octan-3-yl)-6-chloro-2-(3-(ethyl(methyl)amino)propoxy)-8-fluoroquinazolin-7-yl)naphthalen-2-ol dicarboxylate], the half-maximal inhibitory concentration (IC50) turned out to be 13.8 µM.

Take `CCc1cccc2cc(O)cc(-c3c(F)cc4c(N5CC6CCC(C5)N6)nc(OCCCN5C[C@@H](C)O[C@@H](C)C5)nc4c3F)c12` (single isomer, unassigned) [Compound 283b, (R or S)-4-(4-((1R,5S)-3,8-diazacyclo[3.2.1]octan-3-yl)-2-(3-((2S,6R)-2,6-dimethylmorpholinyl)propoxy)-6,8-difluoroquinazolin-7-yl)-5-ethylnaphthalen-2-ol dihydrochloride]: the half-inhibitory concentration (IC50) worked out at 9.18 µM.

In the case of `CC1(C)CN(CCCOc2nc(N3CC4CCC(C3)N4)c3cc(Cl)c(-c4cc(O)cc5ccccc45)c(F)c3n2)CC(C)(C)O1` (single isomer, unassigned) [Compound 222, 4-((S or R)-4-((1R,5S)-3,8-diazabicyclo[3.2.1]octan-3-yl)-6-chloro-8-fluoro-2-(3-(2,2,6,6-tetramethylmorpholinyl)propoxy)quinazolin-7-yl)naphthalen-2-ol formate], the 50% inhibitory concentration (IC50) amounted to 0.581 µM.
